{"source": "patent US20110269825A1", "about": "“Modified Thromboxane A2 Receptor Promoter Sequence” (priority 2008, published 2011)", "molecules": {"B1": {"name": "Prm1D^WT-1(a, b, x)*: Prm1D-derived promoter with mutations at −6717, −6206 and −6800 (SEQ ID NO:124) (nucleic acid, listed as Homo sapiens)", "DNA": "GCTCCAAAGCCACCTCCGAGCCTCCTCAAGAGACCCTCCCATGCGATGCCACCACCCCAGCCCTCCCGGCTCACCTGCTCTGGGACCACCTTTCTCAGTCTGGCTGTGTCGTCTGGTGCACCCCCCATCCCTCTGTCCTATCACCCCACCCCTGGAAGGGGCCTCAAATATGTCCTGTATGTATTAAGCAGGGCATACTACTACTGTGTGCCGCGTTCCAGCGCACCCAGTGAATTTGGAGCCCTGGAGTCTGGGCGACCCCCGGGAGCCGATCCGCCTGGACCTGCCCCGCCCCCTCCAGGCCTTGGGTGCTGCCCAGATGGTGAATAATGCGGGCCTGGCGGCGGGAGCGCCGGGAAGAGGCCTGGCAGGGCGCTGGGCGGCTGGAGGGGCTGAGGCTCCCGAGGAAGCGCCCCTGCCACCCCTACGCGGGCCATTGCATCCCTGCCACCGGTGGCCTGGGGGTCCCAAGGGCGCCGCCTTCCCCAGAAGGCTGTAGGGTGTCCCGGCGTGCGGGGGGCACCCACTGACTCCAAGTCAGCCAGGCCCGGGCCCGAGGGGCGTGGCCAGCGCAGGGTGGGCGGGGCTGATGAGAGACAGCGGGAGACAGAGACTGGACGGAGAGAGCGAGCCGCGGGCTGCCAGCGGCCTACACCCGTCCCAGCTCGGCTTAGCCCCCGCGGACCCCTCCAGGCCGCGACCCCAGGGCGTCCTGTGCCGCCACGCCCTCCATCTGTGTGGGTCCTCTGCTGGGCCCGCCCCTGGTCACAGCCAGACTGACTCAGTTTCCCTGGGAGGTCCCGCTCGAGCCCGTCCTTCCCCTCCCTCTGCCCGCCCCCAGCCCTCGCCCCACCCTCGGCGCCCGCACATCTGCCTGCTCAGCTCCAGACGGCGCCCGGACCCCCGGGCGCGGGATCCAGCCAGGTGGGAGCCCCGCAGATGAGGTCTCTGAAG"}}, "system": "HEL 92.1.7 cells", "experiment": "Dual luciferase genetic reporter assay of promoter-directed luciferase expression in HEL cells", "type": "cell-based, human", "conditions": "for Luciferase expression compared with another construct, in words: comparator as named in the words or parent fragment; for Increase in luciferase activity relative to Prm1 (−8500): 5′ deletion or site-directed mutation of Prm1; for Decrease in luciferase expression relative to Prm1B (−7962): 5′ deletion or site-directed mutation of Prm1B; for Decrease in luciferase expression relative to Prm1HΔ (−6320): site-directed mutation within Prm1HΔ", "protocol": "HEL and EA.hy 926 cells were co-transfected with the various pGL3Basic-recombinant plasmids (2 mg), encoding firefly luciferase, along with pRL-TK (200 ng), encoding renilla luciferase, using DMRIE-C® transfection reagent. HEK293, WI-38, and 1° hAoSMCs were co-transfected with the pGL3Basic-recombinant plasmids (2 mg), along with pRL-TK (200 ng), using Effectene transfection reagent. In all cases, cells co-transfected with pRL-TK (200 ng) in the presence of either the pGL3Control vector (firefly luciferase gene under the control of the SV40 promoter; 2 mg) or the promoter-less pGL3Basic empty vector (2 mg), which served as positive and negative controls, respectively. Firefly and renilla luciferase expression was assayed some 48 h post-transfection using the Dual-Luciferase Reporter Assay System™, as described (Coyle et al., 2005). Relative firefly to renilla luciferase activity (arbitrary units) was calculated as a ratio and was expressed in relative luciferase units (RLU). To investigate the effect of over-expression of exon 5 (+ or −) or KTS (+ or −) isoforms of WT1 on Prm1-directed gene expression, HEL cells were co-transfected with either pGL3b:Prm1 or pGL3b:Prm1D (1.5 μg) plus 200 ng of pRL-TK along with either pcDNA3:WT1 (+/+), pcDNA3:WT1 (+/−), pcDNA3:WT1 (−/+), pcDNA3:WT1 (−/−) (0.5 μg), or as a control, pcDNA3 (0.5 μg). Cells were harvested 48 h post-transfection and assayed for luciferase activity, as above, or subjected to western blot or RT-PCR analysis. The plasmids pcDNA3:WT1 (+/+), pcDNA3:WT1 (+/−), pcDNA3:WT1 (−/+) and pcDNA3:WT1 (−/−) were generously donated by Dr. Charles T. Roberts JR, Oregon National Primate Research Center, Oregon, USA and have been previously described (Tajinda et al., 1999). For PMA studies, approximately 32 h post-transfection, the medium was supplemented with PMA (100 nM), with PMA (100 nM) and PD98059 (10 μM) or, as a control, with vehicle [0.1% (v/v) DMSO]. After 16 h, cells were assayed for firefly and renilla luciferase using the Dual-Luciferase Reporter Assay System™ as previously described (Coyle et al., 2005). The plasmid pCMV5-NAB1, containing the entire coding sequence for NAB1, was generously donated by Dr. Gerald Thiel, University of Saarland Medical Center, Homburg, Germany, and has been described previously (Thiel et al., 2000). To investigate the effect of over-expression of NAB1 on the PMA-mediated induction of Prm1-directed gene expression, HEL cells were transiently co-transfected with pGL3b:Prm1 (2 μg) plus pRL-TK (200 ng) along with either pCMV5 (control) or pCMV:NAB1 (1 μg). Cells were harvested 48 h post-transfection and assayed for luciferase activity, as above.", "note": "Marks after values point to notes of the source that are not given here.", "data": [{"molecule": "Prm1BΔGata/Ets^Ets(−7805)*: Prm1BΔGata/Ets with Ets element at −7805 mutated (SEQ ID NO:21) (DNA GCCCCACATCACCCTCC; expressed or natural sequence; listed as Homo sapiens)", "values": [{"measurement": "Luciferase expression compared with another construct, in words", "setting": "HEL", "result": "did not significantly affect the level of luciferase activity"}]}, {"molecule": "Prm1^GC*^(−8281): Prm1 with GC element at −8281 mutated (SEQ ID NO:11) (DNA GCCCGGTTCCCGCCGGA; expressed or natural sequence; listed as Homo sapiens)", "values": [{"measurement": "Increase in luciferase activity relative to Prm1 (−8500)", "setting": "HEL", "result": 1.9, "unit": "fold"}]}, {"molecule": "Prm1D^GC*^(−6717): Prm1D with GC element at −6717 mutated (SEQ ID NO:23) (DNA TCTGTCCTATCACCCCA; expressed or natural sequence; listed as Homo sapiens)", "values": [{"measurement": "Increase in luciferase expression relative to Prm1D (−6848)", "setting": "HEL, 5′ deletion or site-directed mutation of Prm1D", "result": 4.8, "unit": "fold"}]}, {"molecule": "Prm1I^GC*^(−6206): Prm1I with GC element at −6206 mutated (SEQ ID NO:29) (DNA CAGCGGCCTACACCCGT; expressed or natural sequence; listed as Homo sapiens)", "values": [{"measurement": "Increase in luciferase activity relative to Prm1I (−6258)", "setting": "HEL, 5′ deletion or mutation of Prm1I", "result": 1.3, "unit": "fold"}]}, {"molecule": "Prm1B^GATA(−7890)*: Prm1B with GATA element at −7890 mutated (SEQ ID NO:17) (DNA CTTGGTAGCTCAG; expressed or natural sequence; listed as Homo sapiens)", "values": [{"measurement": "Decrease in luciferase expression relative to Prm1B (−7962)", "setting": "HEL", "result": 1.8, "unit": "fold"}]}, {"molecule": "Prm1^GC*^(−8345): Prm1 with GC element at −8345 mutated (SEQ ID NO:9) (DNA TGCCCCTGACCCCAC; expressed or natural sequence; listed as Homo sapiens)", "values": [{"measurement": "Increase in luciferase activity relative to Prm1 (−8500)", "setting": "HEL", "result": 2.0, "unit": "fold"}]}, {"molecule": "Prm1HΔ^Sp1/Egr1(−6022)*: Prm1HΔ with Sp1/Egr1 element at −6022 mutated (SEQ ID NO:35) (DNA TCTGCCCTAACCCAGCCCT; expressed or natural sequence; listed as Homo sapiens)", "values": [{"measurement": "Decrease in luciferase expression relative to Prm1HΔ (−6320)", "setting": "HEL", "result": 1.8, "unit": "fold"}]}, {"molecule": "Prm1HΔ^Sp1/Egr1(−6278)*: Prm1HΔ with Sp1/Egr1 element at −6278 mutated (SEQ ID NO:27) (DNA CGCAGGGTGTATGGGGCTG; expressed or natural sequence; listed as Homo sapiens)", "values": [{"measurement": "Decrease in luciferase expression relative to Prm1HΔ (−6320)", "setting": "HEL", "result": "reduced luciferase activity"}]}, {"molecule": "Prm1B^Ets(−7870)*: Prm1B with Ets element at −7870 mutated (SEQ ID NO:19) (DNA GACAGGTGAAGTGGGGA; expressed or natural sequence; listed as Homo sapiens)", "values": [{"measurement": "Decrease in luciferase expression relative to Prm1B (−7962)", "setting": "HEL", "result": 2.2, "unit": "fold"}]}, {"molecule": "Prm1HΔ^NF-E2/AP1(−6080)*: Prm1HΔ with NF-E2/AP1 element at −6080 mutated (SEQ ID NO:33) (DNA CCAGACACACTCAGTTTCCCT; expressed or natural sequence; listed as Homo sapiens)", "values": [{"measurement": "Decrease in luciferase expression relative to Prm1HΔ (−6320)", "setting": "HEL", "result": "reduced luciferase activity"}]}, {"molecule": "Prm1HΔ^Sp1/Egr1(−6007)*: Prm1HΔ with Sp1/Egr1 element at −6007 mutated (SEQ ID NO:37) (DNA CCCTCGCAATACCCTCGG; expressed or natural sequence; listed as Homo sapiens)", "values": [{"measurement": "Decrease in luciferase expression relative to Prm1HΔ (−6320)", "setting": "HEL", "result": 1.5, "unit": "fold"}]}, {"molecule": "Prm1HΔ^Sp1/Egr1(−6294)*: Prm1HΔ with Sp1/Egr1 element at −6294 mutated (SEQ ID NO:25) (DNA CGAGGAACATGGCCA; expressed or natural sequence; listed as Homo sapiens)", "values": [{"measurement": "Decrease in luciferase expression relative to Prm1HΔ (−6320)", "setting": "HEL", "result": 1.3, "unit": "fold"}]}, {"molecule": "Prm1^GC*^(−7831): Prm1 with GC element at −7831 mutated (SEQ ID NO:15) (DNA TCACTGTCCTCTCATCT; expressed or natural sequence; listed as Homo sapiens)", "values": [{"measurement": "Increase in luciferase activity relative to Prm1 (−8500)", "setting": "HEL", "result": 2.1, "unit": "fold"}]}, {"molecule": "B1", "values": [{"measurement": "Statistical significance of luciferase expression vs Prm1D^WT-1(a, b)*", "setting": "HEL", "result": "*** (p<0.001)"}, {"measurement": "Mean firefly relative to renilla luciferase activity", "setting": "HEL cells, co-transfected with pRL-TK, 48 h post-transfection", "result": 38.26, "unit": "RLU"}, {"measurement": "Luciferase expression compared with another construct, in words", "setting": "HEL", "result": "an even stronger promoter for driving luciferase expression relative to Prm1D^WT1(a)*^(b)*"}, {"measurement": "Statistical significance of luciferase expression vs Prm1D", "setting": "HEL, ↑ = increase", "result": "*** (p<0.001)"}]}]}
